Data from US20080161188A1, “HERBICIDAL COMPOSITIONS AND METHODS OF CONTROLLING WEED GROWTH” (priority 2006, published 2008).

Test system: turf (perennial rye grass, fescue, crabgrass, and several unidentified broad-leaf weeds)
Experiment: Field test plots: rate of control of turf by ready to use glyphosate composition with fatty acid additive
Format: in vivo
Details: versus the same compositions without (water control) short chain fatty acid
Method: This composition included all of the water necessary to apply for weed control and was not further diluted.
The test plots included several species including perennial rye grass, fescue, crabgrass, and several unidentified broad-leaf weeds. As this is a non-selective test, all growing plants (monocot and broadleaf) were evaluated as one species referred to as “turf.” Test plots were 4-ft by 60 ft rectangles with untreated check plots to either side. Evaluations were made at 3 days, 7 days and 14 days by visually inspecting each plot comparing health and vigor of turf (color and mortality) to adjacent untreated controls.

## CC(O)C(=O)O (stereo not shown) [Lactic acid, lactic acid]
  enhancing the rate of weed control in herbicide compositions: particularly effective
